{
  "source": "patent EP0361645B1",
  "about": "“Organic hydrazine derivatives for pharmaceutical use” (ROHM AND HAAS COMPANY, priority 1988, dated 1990)",
  "key": {"[1]": {"system": "ligated M. sexta abdomens (L5D3)", "test": "Onset of pupal development in ligated L5D3 M. sexta abdomens (injection)", "assay_type": "in vivo", "details": "injected into L5D3 abdomens, events related to pupal formation", "protocol": "L4D1 means fourth instar, first day after molting. L4 animals 36 hours after ecdysis were ligated, decapitated and next day injected with varying doses of compound in 1 - 2 ul DMSO. They were scored as follows: 0 = normal L4 abdomens with no L5 crochets or spiracle apolysis; 1 = exposed dorsal vessel (response to moderate levels of molting hormone in the presence of low JH levels); 2 = L5 crochets formed but no spiracle apolysis; 3 = L5 crochets formed and mild spiracle apolysis; 4 = strong molting response, both L5 crochets and spiracle cuticle synthesized. These methods are an adaptation of the method of J. W. Truman, L. M. Riddiford, L. Safranek, 39 Dev. Biol 247 (1974). Injection and scoring of L5D3 abdomens (weighing 6.5 - 7.5 g) are also adaptations of previous methods in H. F. Nijhout, 22 J. Insect Physiol. 453 (1976). […] Animals were held over moistened filter paper at 25 ° C and were scored after three days. […] For both L4 and L5 abdomens, 50% effective doses were determined by plotting the mean score for all individuals vs. dose, then determining the dose which gives a score of 2.0 and 1.5 respectively. Intact L5D0 hornworms were either allowed to feed on treated commercial black cutworm diet or injected into a proleg and scored after 48 hours. The 50% effective dose was calculated by plotting percentage of the population bearing a prematurely apolysed head capsule vs. dose. […]"}, "antiecdysone antiserum": {"system": "antiecdysone antiserum", "test": "Binding by antiecdysone antiserum (radioimmunoassay)", "protocol": "The invention will now be further described by way of exemplification and by reference to the drawings in which; • Figure 1. Both 20-hydroxyecdysone and Example No. 3 induce process elaboration (A) and inhibition of cell proliferation (B) in Kr cells in a dose-dependent manner. Initial cell density was 2 X 10^6 cells/ml; after incubation of 1 ml aliquots of the cells with the compound for 48 hours the cells were triturated gently and the percentage of cells responding (with processes longer than approximately 17 um, see Cherbas et al. 189 Wilhelm Roux's Arch. 1 (1980)) and total cell density was determined by hemocytom- eter counting, relative to ethanol (1 ul)-treated controls. Determinations were in triplicate for each dose. […] Induction of acetylcholinesterase by varying concentrations of 20-hydroxyecdysone and Example No. 3. Kr cells at an initial density of 3 X 10^6 cells/ml (10 ml per sample) were incubated with the agonist for three days. After harvesting, by centrifugation at 3000 X g, the cell pellets were washed with Robb's Drosophila saline (18, 2 X 5 ml) at 4 ° C, then lysed by sonication in 1 ml of phosphate buffer (pH 7.4, I = 0.1 M) containing 0.5 M NaCI, 0.25 M EDTA and 0.5% TRITON? X-100. See Cherbas, 197 Science 275 (1977). Triton is a registered trademark of Rohm and Haas Company for a alkylaryl polyoxyethylene glycol surfactant. After centrifugation at 16,000 X g, the supernatants were assayed for acetylcholinesterase activity by an adaptation of the method of Ellman et al., 7 Biochem. Pharmacol. 88 (1961), by subtracting out any 412 nm absorbance observed in incubations in the presence of 2 X 10-5 eserine sulfate. […] Absorbance at 412 nm was then measured. Protein concentration in extracts was measured by the Biorad method. […] Ecdysteroid titers were measured by a radioimmunoassay adapted from Warren et al., 40 Experientia 393 (1984) with Protein A-Staph. aureus suspension (Sigma) used as the reagent to separate bound from free ligand. […]"}},
  "data": [
    {"compound": "CC(C)(C)N(NC(=O)c1ccccc1)C(=O)c1ccccc1", "note": "[Example No. 3, N'-t-butyl-N,N'-dibenzoylhydrazine]", "values": [
      {"measurement": "times as potent as 20-hydroxyecdysone", "setting": "[1]", "result": 30, "unit": "times"},
      {"measurement": "binding by antiecdysone antiserum", "setting": "antiecdysone antiserum; 1 X 10^-4 M", "result": "not significantly bound"},
      {"measurement": "fold lower binding affinity than 20-hydroxyecdysone", "setting": "antiecdysone antiserum; antiecdysone antiserum", "result": "> 3125", "unit": "fold"}
    ]}
  ]
}
